Laboratory results as given in patent US7229993B2, “Aryl substituted pyrimidines and the use thereof” (Euro-Celtique S.A., priority 2002, dated 2007).

target: rBIIa/beta 1 sodium channels expressed in Xenopus oocytes (Rattus norvegicus, UniProt P04775); experiment: Electrophysiological assay (two-electrode voltage clamp), sodium channel inhibition, inactivated state; format: cell-based; conditions: apparent Ki from single point inhibition data; rat brain type IIa/beta 1 channels in Xenopus oocytes; test pulse after 4 second depolarization from -120 mV holding potential; read-out: Ki (inhibition constant for sodium channel inhibition)
Experimental: An electrophysiological assay was used to measure potencies of compounds of the present invention rBIIa/beta 1 sodium channels expressed in Xenopus oocytes.
Preparation of cRNA encoding cloned rat brain type IIa (rBIIa) and beta 1 (β1): cDNA clones encoding the rat brain beta 1 subunit are cloned in house using standard methods, and mRNA are prepared by standard methods. mRNA encoding rBIIa is provided by Dr. A. Golden (UC Irvine). The mRNAs are diluted and stored at −80° C. in 1 μL aliquots until injection.
Preparation of oocytes: Mature female Xenopus laevis are anaesthetized (20–40 min) using 0.15% 3-aminobenzoic acid ethyl ester (MS-222) following established procedures (Woodward, R. M., et al., Mol. Pharmacol. 41:89–103 (1992)).
Two to six ovarian lobes are surgically removed. Oocytes at developmental stages V–VI are dissected from the ovary, wherein the oocytes are still surrounded by enveloping ovarian tissues. Oocytes are defolliculated on the day of surgery by treatment with collagenase (0.5 mg/mL Sigma Type I, or Boehringer Mannheim Type A, for 0.5–1 hr). Treated oocytes are vortexed to dislodge epithelia, washed repeatedly and stored in Barth's medium containing 88 mM NaCl, 1 mM KCl, 0.41 mM CaCl2, 0.33 mM Ca(NO3)2, 0.82 mM MgSO4, 2.4 mM NaHCO3, 5 mM HEPES, pH 7.4 adjusted with 0.1 mg/mL gentamycin sulphate.
Micro-injection of oocytes: Defolliculated oocytes are micro-injected using a Nanoject injection system (Drummond Scientific Co., Broomall, Pa.). Injection pipettes are beveled to minimize clogging. Tip diameter of injection pipettes is 15–35 μm. Oocytes are microinjected with approximately 50 nL 1:10 ratio mixtures of cRNAs for rBIIa and beta 1 respectively.
Electrophysiology: Membrane current responses are recorded in frog Ringer solution containing 115 mM NaCl, 2 mM KCl, 1.8 mM CaCl2, 5 mM HEPES, pH 7.4. Electrical recordings are made using a conventional two-electrode voltage clamp (Dagan TEV-200) over periods ranging between 1–7 days following injection. The recording chamber is a simple gravity fed flow-through chamber (volume […] depending on adjustment of aspirator). Oocytes are placed in the recording chamber, impaled with electrodes and continuously perfused (5–15 mL min^−1) with frog Ringer's solution. […]
Voltage protocols for evoking sodium channel currents: The standard holding potential for whole oocyte clamp is −120 mV. […] Peak currents are measured as the maximum negative current after depolarizing voltage steps. […]
The purpose is to find compounds that are state dependent modifiers of neuronal sodium channels. […] Sodium currents are measured at this test pulse before and after the application of the tested compound. Data is acquired using PCLAMP 8.0 software and analyzed with CLAMPFIT software (Axon instruments). […]

rBIIa/beta 1 sodium channels expressed in Xenopus oocytes, sequence (P04775 whole entry): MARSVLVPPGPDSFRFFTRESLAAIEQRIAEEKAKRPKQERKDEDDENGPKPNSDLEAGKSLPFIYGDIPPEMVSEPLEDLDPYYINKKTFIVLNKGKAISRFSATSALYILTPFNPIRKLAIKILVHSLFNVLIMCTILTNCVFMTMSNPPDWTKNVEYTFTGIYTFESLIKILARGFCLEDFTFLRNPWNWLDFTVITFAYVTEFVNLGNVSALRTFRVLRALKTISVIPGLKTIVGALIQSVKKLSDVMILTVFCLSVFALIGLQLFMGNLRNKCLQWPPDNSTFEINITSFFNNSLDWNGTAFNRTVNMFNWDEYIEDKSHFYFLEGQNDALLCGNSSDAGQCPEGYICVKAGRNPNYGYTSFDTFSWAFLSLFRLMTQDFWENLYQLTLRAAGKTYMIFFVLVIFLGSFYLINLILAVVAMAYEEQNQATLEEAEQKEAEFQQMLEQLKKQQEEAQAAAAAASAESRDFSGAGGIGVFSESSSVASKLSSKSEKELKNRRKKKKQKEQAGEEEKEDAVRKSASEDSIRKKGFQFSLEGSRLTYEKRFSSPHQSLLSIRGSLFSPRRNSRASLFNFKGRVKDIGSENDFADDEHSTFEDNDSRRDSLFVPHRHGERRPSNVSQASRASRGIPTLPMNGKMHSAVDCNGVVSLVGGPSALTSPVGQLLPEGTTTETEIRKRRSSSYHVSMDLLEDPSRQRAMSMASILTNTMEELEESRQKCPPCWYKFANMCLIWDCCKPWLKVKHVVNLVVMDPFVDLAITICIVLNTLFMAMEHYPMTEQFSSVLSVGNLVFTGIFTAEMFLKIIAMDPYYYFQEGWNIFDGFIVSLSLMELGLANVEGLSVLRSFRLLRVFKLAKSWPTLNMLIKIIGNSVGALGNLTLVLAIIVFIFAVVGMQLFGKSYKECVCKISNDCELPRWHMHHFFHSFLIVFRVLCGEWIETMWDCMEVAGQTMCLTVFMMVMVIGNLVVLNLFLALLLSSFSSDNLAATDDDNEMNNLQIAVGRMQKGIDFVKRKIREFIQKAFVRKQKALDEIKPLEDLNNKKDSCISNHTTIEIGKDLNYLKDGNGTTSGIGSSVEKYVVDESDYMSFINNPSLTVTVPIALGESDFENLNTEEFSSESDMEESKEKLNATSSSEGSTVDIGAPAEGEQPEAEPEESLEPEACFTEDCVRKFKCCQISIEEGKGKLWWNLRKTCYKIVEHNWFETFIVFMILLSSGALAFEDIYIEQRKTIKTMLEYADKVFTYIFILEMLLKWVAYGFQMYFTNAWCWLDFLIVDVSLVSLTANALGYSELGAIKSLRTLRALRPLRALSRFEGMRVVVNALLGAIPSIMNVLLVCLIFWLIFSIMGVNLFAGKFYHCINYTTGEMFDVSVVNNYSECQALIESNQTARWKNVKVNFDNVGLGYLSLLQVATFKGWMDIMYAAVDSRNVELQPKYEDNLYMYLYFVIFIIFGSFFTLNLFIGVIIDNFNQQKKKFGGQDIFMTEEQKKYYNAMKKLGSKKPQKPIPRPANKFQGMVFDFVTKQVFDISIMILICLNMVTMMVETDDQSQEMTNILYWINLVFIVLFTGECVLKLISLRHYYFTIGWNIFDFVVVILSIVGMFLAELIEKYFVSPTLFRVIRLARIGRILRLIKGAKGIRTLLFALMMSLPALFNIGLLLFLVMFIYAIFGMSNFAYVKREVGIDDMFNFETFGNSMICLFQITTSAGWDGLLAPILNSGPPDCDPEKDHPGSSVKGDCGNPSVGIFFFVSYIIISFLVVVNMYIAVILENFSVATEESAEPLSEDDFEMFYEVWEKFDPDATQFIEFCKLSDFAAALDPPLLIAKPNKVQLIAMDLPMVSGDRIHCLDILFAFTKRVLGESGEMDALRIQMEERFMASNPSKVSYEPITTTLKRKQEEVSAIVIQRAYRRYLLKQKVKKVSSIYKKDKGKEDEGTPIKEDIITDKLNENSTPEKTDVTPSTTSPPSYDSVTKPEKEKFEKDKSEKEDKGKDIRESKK
rBIIa/beta 1 sodium channels expressed in Xenopus oocytes, sequence (Q00954 19-218 partner): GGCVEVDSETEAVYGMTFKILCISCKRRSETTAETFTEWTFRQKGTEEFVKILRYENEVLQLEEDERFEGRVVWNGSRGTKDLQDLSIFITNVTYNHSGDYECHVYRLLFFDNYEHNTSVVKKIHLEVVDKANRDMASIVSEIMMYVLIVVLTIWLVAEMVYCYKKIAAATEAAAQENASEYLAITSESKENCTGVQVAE

Question: With “2-(4-(4-fluorophenoxy)phenyl)-4-tert-butyl-6-aminopyrimidin-4-one” as the compound, how does the Ki read?
Answer: 15.6 µM

Question: `Nc1nc(-c2ccc(Oc3ccc(F)cc3)cc2)[nH]c(=O)c1Cc1ccccc1Cl` [2-(4-(4-fluorophenoxy)phenyl)-6-amino-5-(2-chlorobenzyl)pyrimidin-4-one] was tested. Which Ki did it give?
Answer: 30.9 µM

Question: With `Nc1cc(=O)[nH]c(-c2ccc(Oc3ccc(F)cc3)cc2)n1` [2-(4-(4-fluorophenoxy)phenyl)-6-amino-pyrimidin-4-one] as the compound, how does the Ki read?
Answer: 0.47 µM

Question: Which Ki does the source give for `Nc1nc(-c2ccccc2)[nH]c(=O)c1Cc1ccccc1Cl` [2-phenyl-6-amino-5-(2-chlorobenzyl)pyrimidin-4-one] here?
Answer: 49.2 µM
